Legend:
[1] = Inhibition of rat aortic smooth muscle cell GCH1 expressed in Escherichia coli assessed as reduction in 7,8-dihydroneoptrein 3'-triphosphate formation using GTP as substrate incubated for 1 hr by LC/MS assay
[2] = Inhibition of recombinant rat GCH1 assessed as reduction in 7,8-dihydroneoptrein 3'-triphosphate formation using GTP as substrate incubated for 15 mins by HPLC and fluorescence detection assay

Structure (SMILES) | IC50 [1] | IC50 [2]
CC1CCCCC1NC(=O)CSc1nc2c(O)nc(N)nc2[nH]1 (stereo not drawn) | 89 µM | 
Nc1nc2[nH]c(S)nc2c(=O)[nH]1 |  | 24 µM
Nc1nc(O)c2nc(SCC(=O)Nc3ccc(S(=O)(=O)N4CCCCCC4)cc3)[nH]c2n1 | 127 µM | 
